{
  "source": "paper PMC11945486",
  "about": "“TAS1R2/TAS1R3 Single-Nucleotide Polymorphisms Affect Sweet Taste Receptor Activation by Sweeteners: The SWEET Project” (Nutrients, 2025)",
  "biological_target": "T1, human TAS1R2-R317G (subunit alone) (Homo sapiens, UniProt Q8TE23, R317G)",
  "T1 construct": "expressed in transfected cells; host or cells: HEK293T-Gα16gust44",
  "T1 sequence (Q8TE23 20-839 R317G)": "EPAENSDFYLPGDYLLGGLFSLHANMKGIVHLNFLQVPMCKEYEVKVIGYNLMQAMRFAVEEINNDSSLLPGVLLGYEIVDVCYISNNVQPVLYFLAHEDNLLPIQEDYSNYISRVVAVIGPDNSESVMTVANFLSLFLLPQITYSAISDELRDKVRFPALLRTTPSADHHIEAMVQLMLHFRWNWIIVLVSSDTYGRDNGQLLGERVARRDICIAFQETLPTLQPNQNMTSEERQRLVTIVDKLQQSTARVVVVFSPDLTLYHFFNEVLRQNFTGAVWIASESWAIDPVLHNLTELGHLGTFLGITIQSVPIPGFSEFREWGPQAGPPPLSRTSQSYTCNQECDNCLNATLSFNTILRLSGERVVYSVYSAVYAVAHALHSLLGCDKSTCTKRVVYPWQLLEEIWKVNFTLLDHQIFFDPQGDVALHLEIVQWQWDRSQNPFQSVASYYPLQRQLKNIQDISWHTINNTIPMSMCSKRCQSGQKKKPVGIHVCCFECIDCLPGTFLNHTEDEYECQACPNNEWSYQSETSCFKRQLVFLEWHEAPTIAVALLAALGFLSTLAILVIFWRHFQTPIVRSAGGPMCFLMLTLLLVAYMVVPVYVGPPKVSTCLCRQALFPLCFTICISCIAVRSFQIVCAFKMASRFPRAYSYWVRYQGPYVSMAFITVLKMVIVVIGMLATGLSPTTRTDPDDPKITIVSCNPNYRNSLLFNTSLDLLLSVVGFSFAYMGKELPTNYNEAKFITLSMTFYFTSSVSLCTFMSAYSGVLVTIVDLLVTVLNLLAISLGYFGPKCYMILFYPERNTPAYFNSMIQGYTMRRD",
  "assay": "Calcium mobilisation assay, TAS1R2-R317G subunit alone",
  "format": "cell-based",
  "from_the_text": "The coding sequences for TAS1R2 and TAS1R3 were commercially synthesised, and the human codon was optimised for expression in human cells. The coding sequences of human TAS1R2 and TAS1R3 were subcloned and inserted into the mammalian expression vectors pcDNA6/myc-HisA and pcDNA4/myc-HisA (Invitrogen; Thermo Fisher Scientific; Illkirch, France) between the EcoRI and NotI restriction sites, generating the plasmids pcDNA6-TAS1R2 and pcDNA4-TAS1R3, respectively. To increase protein expression in mammalian cells, an upstream start codon was used, which was a sequence called MAX, corresponding to the QBI SP163 element also described in pcDNA4-HisMax (Invitrogen; Thermo Fisher Scientific; Illkirch, France). To measure the expression level of the receptor by immunohistochemistry, we used the FLAG sequence ([…]) in the C-terminal position, which encodes the FLAG tag epitope. […]\nThe HEK293T cells were kindly provided by Jay P. Slack (Givaudan Flavors Corporation; Cincinnati, OH, USA). […] The fluorescence intensity was measured for 90 s (excitation 488 nm, emission 510 nm) in an automated fluorometric FlexStation®3 Multi-Mode microplate reader (Molecular Devices; San Jose, CA, USA). […] The Ca^2+ changes were expressed as fractional changes in fluorescent light intensity: ΔF/F = (F − F0)/F0, where F was the fluorescent light intensity at each point, and F0 was the value of emitted fluorescent light prior to stimulus application. To calculate dose–response relationships, the changes in fluorescence upon stimulus application were averaged, mock-subtracted and baseline-corrected. […] The half-maximal effective concentrations (EC50 values) and maximal signal amplitudes were calculated using SigmaPlot software (version 15.0) (Systat Software; San Jose, CA, USA).\nFor in vitro calcium mobilisation assay performed on hTAS1R2-SNPs, hTAS1R3-SNPs and mTAS1R3-I60T, 6 to 7 concentrations were tested for each sweet compound, plus buffer alone. All concentration–receptor combinations were measured in duplicate, and each experiment was repeated at least 4 times (8 wells/concentration). […]",
  "data": [
    {"smiles": "C=C(C)[C@@H]1CC=C(/C=N/O)CC1", "note": "[Perillartine, perillartine]", "values": [
      {"measurement": "EC50", "result": "225 ± 31.9", "unit": "µM"},
      {"measurement": "R1 = Variant EC50/WT EC50", "result": 2.5},
      {"measurement": "Max ΔF/F0", "setting": "maximal signal amplitude", "result": "0.17 ± 0.01"}
    ]}
  ]
}
